Results from US20250179187A1, “ANTI PD-L2 ANTIBODY” (REJUVERON SENESCENCE THERAPEUTICS AG, priority 2022, published 2025).

Tested on: PyMT spontaneous tumors
Experiment: Spontaneous mouse PyMT breast tumor model with tumor immunostaining
Assay type: in vivo
Conditions: immunohistochemistry; antibody co-treated with doxorubicin vs Vehicle or Doxorubicin+mIgG1 (p<0.05)
Protocol: Hemizygous transgenic PyMT mice were allowed to develop tumors to an average size of around 200 cubic millimeters, usually around 9 weeks, at which time treatment was initiated, with N=3-5 per treatment group. Doxorubicin (Aurovitas) was administered intraperitoneally once per week at 4 mg/kg and antibodies were administered every three days at a dose of 10 mg/kg during four weeks or 3 mg/kg where noted. Vehicle-treated animals received only vehicle solvent for doxorubicin as a no-treatment control. Tumors were measured with a standard caliper once per week. At the end of the study, tumors were resected and further analyzed by immunohistochemistry. […]
For double SA-beta-galactosidase/PD-L2 staining, following resection, tumors were fixed in 2% paraformaldehyde and 0.2% glutaldehyde in PBS for 2 hours at room temperature. […] To quantify the number of cells double positive for SA-beta-galactosidase and PDL2, 3 random fields from 2 mammary glands from each animal in each treatment group was analyzed with Image J software. Staining for CD3, CD4 and CD8 was also carried out by standard immunohistochemistry techniques on paraffin-embedded material and quantified according to pixel density using Image J software.

COc1cccc2c1C(=O)c1c(O)c3c(c(O)c1C2=O)C[C@@](O)(C(=O)CO)C[C@@H]3O[C@H]1C[C@H](N)[C@H](O)[C@H](C)O1 [doxorubicin, reference compound]
cells double-positive for PD-L2 and SA-βGal in PyMT tumors: significantly induces double-positive cells
